From patent US5157123A, “S-(2-thiopyridyl)-L-cysteine, a heterobifunctional crosslinking reagent” (priority 1989, dated 1992)
Where a name gives a salt, the structure may show the parent alone.

Columns and labels:
[1] = tested on: human monoclonal IgM antibody 1688; test: Incorporation of TPCH versus TPMPH into IgM antibody 1688 (periodate oxidation, pyridine-2-thione release at 343 nm); details: identical coupling conditions, FIG. 2
Protocol: Human IgM (2.5 mg) in 0.1M sodium acetate, pH 5.5 (1 mg IgM/ml) was oxidized in the presence of 10.7 mg (50 μmoles) NaIO4 and 7 mg (19.8 μmoles) of TPCH. After 20 minutes at 0° C. the reaction mixture was chromatographed on a Sephadex G-25 column to remove access NaIO4 and uncoupled TPCH. The derivatized IgM molecules were eluted with 0.1M sodium phosphate, 0.1M sodium chloride, pH 7.5, and stored at 4° C. The extent of modification was determined to be 17 TPCH molecules per IgM by monitoring the release of pyridine-2-thione at 343 nm during incubation of the derivatized antibody in the presence of 10 mM dithiothreitol as described in J. Carlsson, H. Drevin, and R. Axen, Biochem. J., vol. […]
Human IgM (2.5 mg) was oxidized in 1.25 ml of 0.1M sodium acetate, pH 5.5, in the presence of 5.3 mg sodium periodate with either 6.9 mg (20 μmoles) of TPCH trihydrochloride (M.W.=353.5 daltons) or 4.4 mg (20 μmoles) of TPMPH (M.W.=229.3 daltons) at 0° C. […] The derivatized IgM molecules were eluted with 0.1M sodium phosphate, 0.1 M sodium chloride, pH 7.5 The extent of modification was determined as described above.
Human IgM (2.5 mg) was oxidized in the presence of 0.27 mg sodium periodate under identical conditions as described above. The extent of derivatization was determined after 20 minutes of incubation using the procedure described above.

[2] = Water solubility of crosslinkers; type: physicochemical; details: distilled water

Structure (SMILES) | increase in time required for incorporation of comparable amounts of crosslinker per antibody, versus TPCH [1] | maximum solubility [2] | water solubility (concentration to which it can be easily dissolved) [2]
NNC(=O)CCSSc1ccccn1 [TPMPH, S-(2-thiopyridyl)-mercaptopropionic acid hydrazide] | ~3 fold | 150 mM | 
NNC(=O)[C@@H](N)CSSc1ccccn1 [TPCH, S-(2-Thiopyridyl)-L-Cysteine Hydrazide Trihydrochloride] |  |  | ≥ 1000 mM
